Source: paper PMC5216056 (Nature Communications, 2017)
Values joined by “and” are separate entries in the source; they are usually repeats but may differ in a detail not shown here. Equal entries are not always repeated. Where two headings read alike, the source gives them in different places.

Experiments:
Na+ channel (site 2) = type: binding; conditions: 10 µM
hCB1R [1] = target: T1, hCB1R (Homo sapiens, UniProt P21554); test: cell-based; type: cell-based; conditions: for Emax: read-out: Emax ± SEM pERK hCB1R
T1 construct: host or cells: CHO
T1 sequence (P21554 whole entry): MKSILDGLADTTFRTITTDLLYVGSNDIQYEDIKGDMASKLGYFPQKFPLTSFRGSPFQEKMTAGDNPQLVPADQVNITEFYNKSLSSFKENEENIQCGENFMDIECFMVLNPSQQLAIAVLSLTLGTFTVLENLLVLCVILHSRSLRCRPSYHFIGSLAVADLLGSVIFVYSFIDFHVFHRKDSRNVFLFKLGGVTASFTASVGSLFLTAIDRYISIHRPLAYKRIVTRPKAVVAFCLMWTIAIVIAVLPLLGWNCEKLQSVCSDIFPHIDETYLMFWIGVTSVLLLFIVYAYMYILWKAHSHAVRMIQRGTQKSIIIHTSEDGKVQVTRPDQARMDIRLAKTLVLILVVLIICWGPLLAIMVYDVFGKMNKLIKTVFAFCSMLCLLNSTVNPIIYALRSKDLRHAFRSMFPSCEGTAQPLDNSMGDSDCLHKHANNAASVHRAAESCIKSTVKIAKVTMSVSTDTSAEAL

Human recombinant TRPV1 = target: T2, Human recombinant TRPV1 (Homo sapiens, UniProt Q8NER1); test: cell-based; type: cell-based; conditions: for EC50: read-out: TRPV1 Potency EC50
T2 construct: expressed in transfected cells; host or cells: HEK293 (TRPV1-HEK-293, gift from John Davis, GlaxoSmithKline)
T2 sequence (Q8NER1 whole entry): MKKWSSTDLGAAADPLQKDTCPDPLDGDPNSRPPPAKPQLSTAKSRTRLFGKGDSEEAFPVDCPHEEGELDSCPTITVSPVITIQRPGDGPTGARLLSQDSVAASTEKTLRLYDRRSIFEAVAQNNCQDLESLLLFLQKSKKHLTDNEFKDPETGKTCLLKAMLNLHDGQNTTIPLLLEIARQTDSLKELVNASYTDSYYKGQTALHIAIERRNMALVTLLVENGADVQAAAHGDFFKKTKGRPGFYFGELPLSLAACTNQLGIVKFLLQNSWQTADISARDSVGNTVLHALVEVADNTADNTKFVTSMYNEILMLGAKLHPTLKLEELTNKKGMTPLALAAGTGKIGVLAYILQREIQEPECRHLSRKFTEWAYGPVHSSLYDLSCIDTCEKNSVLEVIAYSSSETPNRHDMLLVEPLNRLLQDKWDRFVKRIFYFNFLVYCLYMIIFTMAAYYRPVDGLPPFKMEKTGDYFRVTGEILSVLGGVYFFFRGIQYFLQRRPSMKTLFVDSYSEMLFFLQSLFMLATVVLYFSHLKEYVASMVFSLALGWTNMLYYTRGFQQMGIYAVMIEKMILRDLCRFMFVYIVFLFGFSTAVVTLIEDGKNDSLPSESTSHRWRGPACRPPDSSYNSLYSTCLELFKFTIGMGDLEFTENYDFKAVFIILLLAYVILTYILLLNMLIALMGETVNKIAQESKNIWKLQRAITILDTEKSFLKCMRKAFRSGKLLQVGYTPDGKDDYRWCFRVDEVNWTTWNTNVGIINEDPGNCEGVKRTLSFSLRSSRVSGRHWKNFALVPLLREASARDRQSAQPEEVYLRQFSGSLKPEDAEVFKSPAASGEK

hCB1R [2] = target: T1, hCB1R; test: cell-based; conditions: for Emax: read-out: Emax ± SEM cAMP hCB1R
hCB1R [3] = target: T1, hCB1R; test: cell-based; type: cell-based
hCB1R [4] = target: T1, hCB1R; test: biochemical; type: binding
Rat recombinant TRPV2 = target: T3, Rat recombinant TRPV2 (Rattus norvegicus, UniProt Q9WUD2); test: cell-based; type: cell-based; conditions: for IC50: vs LPC 3μM, read-out: TRPV2 IC50 for antagonism or desensitization
T3 construct: expressed in transfected cells; host or cells: HEK293 (plasmid a gift from HB Bradshaw, Indiana University)
T3 sequence (Q9WUD2 1-761): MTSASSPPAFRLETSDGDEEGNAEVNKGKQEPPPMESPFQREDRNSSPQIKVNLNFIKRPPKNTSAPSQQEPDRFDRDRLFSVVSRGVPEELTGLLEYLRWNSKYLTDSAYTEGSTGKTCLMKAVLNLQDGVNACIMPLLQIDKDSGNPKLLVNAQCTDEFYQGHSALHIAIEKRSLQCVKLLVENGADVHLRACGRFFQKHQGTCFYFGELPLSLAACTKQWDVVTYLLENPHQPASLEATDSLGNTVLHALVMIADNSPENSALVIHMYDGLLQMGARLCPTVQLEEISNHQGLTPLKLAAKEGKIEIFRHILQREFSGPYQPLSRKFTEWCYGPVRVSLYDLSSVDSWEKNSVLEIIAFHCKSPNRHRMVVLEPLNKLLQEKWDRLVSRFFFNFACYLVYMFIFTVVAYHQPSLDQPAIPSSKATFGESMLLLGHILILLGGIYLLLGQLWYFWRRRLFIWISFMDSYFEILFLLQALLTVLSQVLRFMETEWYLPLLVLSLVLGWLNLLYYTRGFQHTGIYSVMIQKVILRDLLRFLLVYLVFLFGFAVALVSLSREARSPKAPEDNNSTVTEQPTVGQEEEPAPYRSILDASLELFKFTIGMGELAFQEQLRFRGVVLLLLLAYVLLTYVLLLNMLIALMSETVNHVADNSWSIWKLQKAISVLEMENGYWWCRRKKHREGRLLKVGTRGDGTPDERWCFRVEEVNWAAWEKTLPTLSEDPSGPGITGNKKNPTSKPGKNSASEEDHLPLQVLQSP

[5] = tested on: AEA cellular uptake in HMC-1 cells; test: cells; type: cell-based, human
[6] = target: T4, norepinephrine transporter (h) (Homo sapiens, UniProt P23975); test: biochemical; type: binding; conditions: for % inhibition norepinephrine transporter (h): 10 µM
T4 construct: CEREP (contract assay)
T4 sequence (P23975 whole entry): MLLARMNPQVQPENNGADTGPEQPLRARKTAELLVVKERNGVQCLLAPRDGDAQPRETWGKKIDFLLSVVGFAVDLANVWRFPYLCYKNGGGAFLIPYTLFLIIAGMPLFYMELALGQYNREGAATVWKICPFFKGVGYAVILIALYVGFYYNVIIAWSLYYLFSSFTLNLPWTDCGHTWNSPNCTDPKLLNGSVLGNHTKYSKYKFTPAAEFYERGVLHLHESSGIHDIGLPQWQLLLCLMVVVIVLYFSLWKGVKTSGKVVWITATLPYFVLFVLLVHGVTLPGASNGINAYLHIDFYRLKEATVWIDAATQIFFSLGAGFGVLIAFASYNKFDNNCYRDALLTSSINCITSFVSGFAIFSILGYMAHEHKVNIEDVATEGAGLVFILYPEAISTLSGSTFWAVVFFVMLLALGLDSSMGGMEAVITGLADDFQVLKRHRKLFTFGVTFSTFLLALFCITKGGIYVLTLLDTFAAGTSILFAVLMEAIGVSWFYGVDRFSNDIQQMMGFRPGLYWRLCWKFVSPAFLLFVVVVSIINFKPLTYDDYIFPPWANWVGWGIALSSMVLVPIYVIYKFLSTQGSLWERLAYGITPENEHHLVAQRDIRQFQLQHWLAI

mu (MOP) (h) = target: T5, mu (MOP) (h) (Homo sapiens, UniProt P35372); test: CEREP panel; type: binding; conditions: for % inhibition mu (MOP) (h): 10 µM
T5 construct: CEREP (contract assay)
T5 sequence (P35372 whole entry): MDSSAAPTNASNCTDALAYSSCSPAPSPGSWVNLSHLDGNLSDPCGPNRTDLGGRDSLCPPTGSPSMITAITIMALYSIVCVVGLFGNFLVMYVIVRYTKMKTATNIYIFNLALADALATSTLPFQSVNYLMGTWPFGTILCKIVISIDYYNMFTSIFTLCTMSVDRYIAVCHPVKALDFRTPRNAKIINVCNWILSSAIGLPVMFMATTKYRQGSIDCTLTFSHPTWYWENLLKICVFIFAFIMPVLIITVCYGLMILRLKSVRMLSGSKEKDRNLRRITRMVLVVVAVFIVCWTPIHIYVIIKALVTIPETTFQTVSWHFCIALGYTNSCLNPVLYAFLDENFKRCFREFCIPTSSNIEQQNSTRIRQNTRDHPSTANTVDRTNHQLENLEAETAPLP

AT1 (h) = target: T6, AT1 (h) (Homo sapiens, UniProt P30556); test: CEREP panel; type: binding; conditions: for % inhibition AT1 (h): 10 µM
T6 construct: CEREP
T6 sequence (P30556 1-359): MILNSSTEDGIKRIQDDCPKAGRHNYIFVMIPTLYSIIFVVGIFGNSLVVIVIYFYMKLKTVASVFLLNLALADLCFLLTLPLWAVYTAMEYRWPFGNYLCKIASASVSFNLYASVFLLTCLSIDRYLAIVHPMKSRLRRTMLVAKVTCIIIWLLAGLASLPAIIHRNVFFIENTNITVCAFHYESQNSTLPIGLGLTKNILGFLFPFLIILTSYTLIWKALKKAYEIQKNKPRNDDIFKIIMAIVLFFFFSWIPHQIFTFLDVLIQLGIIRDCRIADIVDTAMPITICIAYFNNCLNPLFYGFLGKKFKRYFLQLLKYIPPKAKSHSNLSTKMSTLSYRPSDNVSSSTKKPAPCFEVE

[7] = tested on: AEA cellular uptake in U937 cells; test: cells; type: cell-based, human; conditions: for AEA reuptake Efficacy (% inhibition) U937 cells: from dose-response
N muscle-type (h) = target: T7, N muscle-type (h) (Homo sapiens, UniProt P02708+P07510+P11230+Q07001); test: CEREP panel; type: binding; conditions: 10 µM
T7 construct: CEREP (contract assay)
T7 sequence (P02708 21-457): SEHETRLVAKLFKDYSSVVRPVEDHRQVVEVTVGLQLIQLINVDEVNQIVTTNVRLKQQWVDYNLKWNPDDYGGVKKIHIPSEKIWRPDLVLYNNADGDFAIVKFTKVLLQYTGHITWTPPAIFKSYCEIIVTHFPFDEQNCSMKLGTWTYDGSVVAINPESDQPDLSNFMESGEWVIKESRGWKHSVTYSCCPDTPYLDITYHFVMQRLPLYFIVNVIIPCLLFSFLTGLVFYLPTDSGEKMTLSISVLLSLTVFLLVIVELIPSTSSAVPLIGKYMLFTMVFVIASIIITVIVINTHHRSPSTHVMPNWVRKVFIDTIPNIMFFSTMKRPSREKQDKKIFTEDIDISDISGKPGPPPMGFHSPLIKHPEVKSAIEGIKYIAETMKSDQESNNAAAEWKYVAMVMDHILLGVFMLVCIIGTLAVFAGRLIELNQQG
T7 sequence (P11230 24-501): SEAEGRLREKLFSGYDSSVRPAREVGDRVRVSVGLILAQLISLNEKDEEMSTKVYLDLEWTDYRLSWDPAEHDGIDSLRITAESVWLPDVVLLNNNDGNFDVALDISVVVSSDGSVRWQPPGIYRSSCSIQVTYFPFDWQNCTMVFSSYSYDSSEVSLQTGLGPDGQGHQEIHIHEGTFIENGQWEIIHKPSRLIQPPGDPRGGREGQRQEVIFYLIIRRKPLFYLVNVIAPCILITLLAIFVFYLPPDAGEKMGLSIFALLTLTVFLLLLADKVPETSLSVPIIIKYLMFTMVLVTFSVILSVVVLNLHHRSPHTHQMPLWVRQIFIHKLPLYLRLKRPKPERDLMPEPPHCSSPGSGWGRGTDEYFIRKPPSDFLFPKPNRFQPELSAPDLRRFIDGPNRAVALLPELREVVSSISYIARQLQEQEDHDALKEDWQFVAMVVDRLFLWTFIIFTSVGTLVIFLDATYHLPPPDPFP
T7 sequence (Q07001 22-517): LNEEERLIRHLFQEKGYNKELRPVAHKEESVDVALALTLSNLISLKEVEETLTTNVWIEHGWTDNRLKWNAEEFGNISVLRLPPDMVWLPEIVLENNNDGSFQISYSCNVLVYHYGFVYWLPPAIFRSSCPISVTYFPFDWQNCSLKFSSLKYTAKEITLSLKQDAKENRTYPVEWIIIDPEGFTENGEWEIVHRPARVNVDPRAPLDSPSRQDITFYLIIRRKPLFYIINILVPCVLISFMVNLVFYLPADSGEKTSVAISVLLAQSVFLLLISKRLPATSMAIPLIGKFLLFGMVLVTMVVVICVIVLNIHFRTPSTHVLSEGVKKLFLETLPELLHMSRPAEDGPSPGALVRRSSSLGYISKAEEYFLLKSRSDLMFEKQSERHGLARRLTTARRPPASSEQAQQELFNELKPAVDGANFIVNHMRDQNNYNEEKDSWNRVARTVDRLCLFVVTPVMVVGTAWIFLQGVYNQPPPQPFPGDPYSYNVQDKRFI
T7 sequence (P07510 23-517): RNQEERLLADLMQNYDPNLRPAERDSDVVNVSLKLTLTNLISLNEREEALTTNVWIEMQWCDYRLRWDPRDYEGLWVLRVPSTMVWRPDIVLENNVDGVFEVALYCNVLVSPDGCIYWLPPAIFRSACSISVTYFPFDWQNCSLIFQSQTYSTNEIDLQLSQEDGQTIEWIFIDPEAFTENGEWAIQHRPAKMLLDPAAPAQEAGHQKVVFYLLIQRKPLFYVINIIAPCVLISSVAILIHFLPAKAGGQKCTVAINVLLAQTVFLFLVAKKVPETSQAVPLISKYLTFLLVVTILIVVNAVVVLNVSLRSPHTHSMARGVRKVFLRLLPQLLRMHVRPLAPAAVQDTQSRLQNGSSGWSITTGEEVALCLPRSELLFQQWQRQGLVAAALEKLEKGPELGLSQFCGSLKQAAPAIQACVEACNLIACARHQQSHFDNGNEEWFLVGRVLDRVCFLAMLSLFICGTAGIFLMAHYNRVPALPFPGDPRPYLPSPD

[8] = 1 μM
[9] = 1 μM; remark: listed apart in the source
hCB2R = hCB2R (Homo sapiens, UniProt P34972); test: biochemical; type: binding
hCB2R, sequence (P34972 whole entry): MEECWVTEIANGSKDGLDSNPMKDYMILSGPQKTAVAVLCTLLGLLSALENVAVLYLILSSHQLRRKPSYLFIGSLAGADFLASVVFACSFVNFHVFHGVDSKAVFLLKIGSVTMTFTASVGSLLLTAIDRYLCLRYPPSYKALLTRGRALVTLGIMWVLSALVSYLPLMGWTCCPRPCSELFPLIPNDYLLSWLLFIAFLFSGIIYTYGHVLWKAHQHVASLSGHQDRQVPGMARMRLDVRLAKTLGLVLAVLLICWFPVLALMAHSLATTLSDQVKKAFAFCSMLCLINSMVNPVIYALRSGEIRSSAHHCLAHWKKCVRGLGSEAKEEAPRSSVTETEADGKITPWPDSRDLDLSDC

[10] = i.v., mice; for C0: 1.0-2.0 mg/kg, extrapolated
[11] = tested on: Ca2+ channel (L, diltiazem site); test: CEREP panel; type: binding; conditions: 10 µM
AR (h) = test: CEREP panel; type: binding, human; conditions: 10 µM
[12] = TRPV1 IC50 for antagonism or desensitization
[13] = Homo sapiens, U-937, read-out: AEA reuptake IC50 (95% CI) U937 cells
[14] = read-out: TRPV1 IC50 for antagonism or desensitization
[15] = CHO membranes, Leiden, HU210 and SR144528 from Roche
[16] = read-out: AEA reuptake IC50 (95% CI) HMC-1 cells, FAAH-deficient cells
[17] = read-out: AEA reuptake IC50 (95% CI) U937 cells

Row | Structure (SMILES) | % inhibition Na+ channel (site 2) (Na+ channel (site 2)) [%] | TRPV1 Efficacy (% ionomycin 4μM) (Human recombinant TRPV1) [%] | TRPV2 Efficacy (% ionomycin 4μM) (Rat recombinant TRPV2) [%] | IC50 (Rat recombinant TRPV2) [µM] | AEA reuptake Efficacy (% inhibition) U937 cells [7] [%] | % inhibition mu (MOP) (h) (mu (MOP) (h)) [%] | % inhibition AT1 (h) (AT1 (h)) [%] | CL microsomes mouse [8] [µL/min/mg protein] | Emax ± SEM pERK hCB1R (hCB1R [1]) | pEC50 ± SEM pERK hCB1R (hCB1R [1]) | IC50 (Human recombinant TRPV1; [14]) [µM] | CL hepatocytes mouse [9] [µL/min/mio cells] | Emax ± SEM cAMP hCB1R (hCB1R [2]) | pEC50 ± SEM cAMP hCB1R (hCB1R [2]) | pEC50 ± SEM GIRK hCB1R (hCB1R [3]) | pKi ± SEM hCB1R (hCB1R [4]; [15]) | IC50 [5, 16] [µM] | pKi ± SEM hCB2R (hCB2R; [15]) | % inhibition norepinephrine transporter (h) [6] [%] | IC50 [7, 17] [µM] | also measured
1 | CCCCCCC(C)(C)c1cc(OC)c([C@@H]2C=C(CO)[C@@H]3C[C@H]2C3(C)C)c(OC)c1 [HU308] | 30 | < 10 | < 10 | > 100 | 62 |  |  |  |  |  |  |  |  |  |  |  |  |  |  |  | EC50 (hCB1R [1]): > 100 µM; Emax (hCB1R [1]): 18 ± 4%; IC50 (Human recombinant TRPV1; [12]): 69 ± 5.7 µM; EC50 (hCB1R [2]; pEC50 ± SEM cAMP hCB1R): > 10 µM; Emax (hCB1R [2]): 18 ± 4%; EC50 (hCB1R [3]): > 10 µM; Emax (hCB1R [3]; AtT20, read-out: Emax ± SEM GIRK hCB1R): 15 ± 10%; Ki (hCB1R [4]): > 10 µM; IC50 ([5]; Homo sapiens, HMC1, read-out: AEA reuptake IC50 (95% CI) HMC-1 cells): > 5 µM; inhibition at 10 µM ([6]; read-out: % inhibition norepinephrine transporter (h)): 33%; inhibition at 10 µM (mu (MOP) (h); read-out: % inhibition mu (MOP) (h)): 7%; inhibition at 10 µM (AT1 (h); read-out: % inhibition AT1 (h)): 53%; IC50 [7, 13]: 1.81 µM
2 | Cc1c(C(=O)NN2CCCCC2)nn(-c2ccc(Cl)cc2Cl)c1-c1ccc(I)cc1 [AM251] |  |  | < 10 |  |  | 93 | 36 |  |  |  |  |  |  |  |  |  |  |  |  |  | % inhibition N muscle-type (h) (N muscle-type (h)): 12%
3 | CCCCCCC(C)(C)c1cc(OC)c(C2=C[C@H]3CC[C@]2(CO)C3(C)C)c(OC)c1 [HU910] | 5 | < 10 | < 10 | > 100 | 70 | 23 | 37 | 464 | 12 ± 4 | < 4 | > 100 | 34 | 28 ± 8 | < 5 | < 5 | < 5 | > 5 | 7.22 ± 0.31 | 58 | 1.56 | Emax ± SEM GIRK hCB1R (hCB1R [3]; normalized to CP55940): 7 ± 5%; AUCinf [10]: 6060 ng·h/mL; AUCinf/dose [10]: 6060 kg·ng·h/mL/mg; AUClast [10]: 5960 ng·h/mL; CL [10]: 2.83 mL/min/kg; T1/2 [10]: 7.4 h and 7 h; C0 [10]: 55600 ng/mL
4 | CCCC(C)(C)c1ccc2c(c1)OC(C)(C)[C@@H]1CC=C(C)C[C@@H]21 [JWH133] | -20 | 24.6 | < 10 | > 100 |  | 7 | 7 | 63 | 10 ± 3 | < 4 | 77.7 ± 3 | 9.8 | 37 ± 6 | < 5 | < 5 |  |  |  | -9 |  | EC50 (Human recombinant TRPV1): 8.2 µM; Emax ± SEM GIRK hCB1R (hCB1R [3]): 5 ± 1; pKi ± SEM hCB1R (hCB1R [4]): < 5; CB2R Selectivity (binding, human) (hCB2R): 153 fold; pKi ± SEM hCB2R (hCB2R): 7.18 ± 0.34; AUCinf [10]: 1750 ng·h/mL; AUCinf/dose [10]: 1090 kg·ng·h/mL/mg; AUClast [10]: 1650 ng·h/mL; CL [10]: 15.3 mL/min/kg; T1/2 [10]: 1.1 h and 1 h; Vss [10]: 1.32 L/kg and 1 to 3 L/kg; C0 [10]: 3870 ng/mL
5 | CN1CCCCC1Cn1cc(C(=O)c2cc([N+](=O)[O-])ccc2I)c2ccccc21 (racemic) [(rac)-AM1241] |  |  |  |  |  |  |  | 254 | 86 ± 3 | 5.07 ± 0.05 |  |  |  | < 5 | < 5 |  |  | 8.39 ± 0.10 |  |  | Emax ± SEM GIRK hCB1R (hCB1R [3]): 36 ± 4; pKi ± SEM hCB1R (hCB1R [4]): 6.89 ± 0.31; CB2R Selectivity (binding, human) (hCB2R): 32
6 | Cc1ccc2c(c1)Cc1c(C(=O)NN3CCCCC3)nn(-c3ccc(Cl)cc3Cl)c1-2 [Gp-1a] | 40 | < 10 | < 10 | 11.9 | 64 | 102 | 20 | 134 | 2 ± 3 |  | 3 ± 0.1 | 78 | 19 ± 5 | < 5 | 5.26 ± 0.1 | 6.97 ± 0.35 | > 5 | 7.66 ± 0.11 | 59 | 1.26 | % inhibition Ca2+ channel (L, diltiazem site) [11]: 34%; AUCinf [10]: 825 ng·h/mL; AUCinf/dose [10]: 412 kg·ng·h/mL/mg; AUClast [10]: 658 ng·h/mL; CL [10]: 40 mL/min/kg; T1/2 [10]: 3.5 h; C0 [10]: 351 ng/mL; % inhibition AR (h) (AR (h)): -8%
7 | CCCCC/C=C\C/C=C\C/C=C\C/C=C\CCCC(=O)OC(CO)CO [2-AG, 2-arachidonoyl glycerol] |  |  |  |  |  |  |  |  |  |  |  |  |  |  |  |  |  |  |  |  | Emax (hCB1R [1]): 111 ± 10%; Emax (hCB1R [2]): < 70%; Emax (hCB1R [3]; AtT20; read-out: Emax ± SEM GIRK hCB1R): 100 ± 11%; Ki (hCB2R; CHO membranes, Leiden, HU210 and SR144528 from Roche, read-out: pKi ± SEM hCB2R (converted)): ~0.1 µM and 0.115 µM
8 | CN1CCCC[C@@H]1Cn1cc(C(=O)c2cc([N+](=O)[O-])ccc2I)c2ccccc21 [(R)-AM1241] |  | 10.7 | 14.5 | 35.5 | 77 |  |  | 314 | 78 ± 12 | 5.66 ± 0.19 | > 50 |  | 54 ± 7 | 6.17 ± 0.12 | 5.00 ± 0.1 | 6.86 ± 0.46 | > 5 | 8.44 ± 0.25 |  | 4.81 | EC50 (Human recombinant TRPV1): > 50 µM; Emax ± SEM GIRK hCB1R (hCB1R [3]; normalized to CP55940): 51 ± 3%; EC50 (Rat recombinant TRPV2; read-out: TRPV2 Potency EC50): 12 µM; CB2R Selectivity (binding, human) (hCB2R; 10^(pKi CB2R-pKi CB1R)): 38 fold
9 | Cc1c(C(=O)NN2CCCCC2)nn(-c2ccc(Cl)cc2Cl)c1-c1ccc(Cl)cc1 [SR141716A] |  | 17.5 | < 10 | > 100 | 57 |  |  |  |  |  |  |  |  |  |  |  |  |  |  |  | IC50 (Human recombinant TRPV1; [12]): 33.7 µM and 11.5 µM; EC50 (Human recombinant TRPV1): 12 µM; IC50 ([5]; Homo sapiens, HMC1, read-out: AEA reuptake IC50 (95% CI) HMC-1 cells, FAAH-deficient cells): 3.5 µM; IC50 [7, 13]: 1.91 µM; % inhibition AR (h) (AR (h)): 4%
